{"source": "paper PMC10138554", "about": "“Insights into the Microbicidal, Antibiofilm, Antioxidant and Toxicity Profile of New O-Aryl-Carbamoyl-Oxymino-Fluorene Derivatives” (International Journal of Molecular Sciences, 2023)"}
{"tested_on": "E. faecalis ATCC 29212", "test": "MIC assay, serial two-fold microdilution in liquid medium", "assay_type": "cell-based", "details": "Enterococcus faecalis, ATCC29212; E. faecalis ATCC 29212, planktonic, 37 °C, 24 h; read-out: minimum inhibitory concentration (MIC)", "procedure": "(§1) The inhibitory activity of the obtained compounds has been assessed on five microbial strains, respectively: E. coli ATCC 25922, P. aeruginosa ATCC 27853, S. aureus ATCC 25923, E. faecalis ATCC 29212 and C. albicans ATCC 90029, in a planktonic and adherent growth state.\n(§2) The MIC assay was performed by the serial two-fold microdilutions in a liquid medium, using a concentration range from 5 to 0.009 mg/mL and microbial suspensions of 0.5 MacFarland density. The wells containing only the microbial culture served as positive control and those containing the sterile culture medium as the negative control. The MIC values were read after incubation at 37 °C for 24 h.", "units": {"MIC": "µg/mL"}}
{"smiles": "O=C(Nc1cccc(Cl)c1)ON=C1c2ccccc2-c2ccccc21", "note": "[Compound 1c, 9-((3-chloro-phenyl)carbamoyloxymino)fluoren]", "MIC": 5000}
{"smiles": "O=C(Nc1ccc(Cl)c(Cl)c1)ON=C1c2ccccc2-c2ccccc21", "note": "[Compound 1d, 9-((3,4-dichloro-phenyl)carbamoyloxymino)fluoren]", "MIC": 5000}
{"tested_on": "C. albicans ATCC 90029", "test": "MIC assay, serial two-fold microdilution in liquid medium", "assay_type": "cell-based", "details": "Candida albicans, ATCC90029; C. albicans ATCC 90029, planktonic, 37 °C, 24 h; read-out: minimum inhibitory concentration (MIC)", "procedure": "as §1, §2", "units": {"MIC": "µg/mL"}}
{"smiles": "O=C(Nc1cccc(Cl)c1)ON=C1c2ccccc2-c2ccccc21", "note": "[Compound 1c, 9-((3-chloro-phenyl)carbamoyloxymino)fluoren]", "MIC": 5000}
{"smiles": "O=C(Nc1ccc(Cl)c(Cl)c1)ON=C1c2ccccc2-c2ccccc21", "note": "[Compound 1d, 9-((3,4-dichloro-phenyl)carbamoyloxymino)fluoren]", "MIC": 5000}
{"tested_on": "E. coli ATCC 25922", "test": "MBC assay, plating on solid medium after MIC reading", "assay_type": "cell-based", "details": "Escherichia coli, ATCC25922, read-out: minimum bactericidal concentration (MBC)", "procedure": "as §1\n(§3) The MB assay was performed after reading the MIC values.", "units": {"MBC": "µg/mL"}}
{"smiles": "O=C(Nc1cccc(Cl)c1)ON=C1c2ccccc2-c2ccccc21", "note": "[Compound 1c, 9-((3-chloro-phenyl)carbamoyloxymino)fluoren]", "MBC": 5000}
{"smiles": "O=C(Nc1ccc(Cl)c(Cl)c1)ON=C1c2ccccc2-c2ccccc21", "note": "[Compound 1d, 9-((3,4-dichloro-phenyl)carbamoyloxymino)fluoren]", "MBC": 5000}
{"tested_on": "E. faecalis ATCC 29212", "test": "MBC assay, plating on solid medium after MIC reading", "assay_type": "cell-based", "details": "Enterococcus faecalis, ATCC29212, read-out: minimum bactericidal concentration (MBC)", "procedure": "as §1, §3", "units": {"MBC": "µg/mL"}}
{"smiles": "O=C(Nc1cccc(Cl)c1)ON=C1c2ccccc2-c2ccccc21", "note": "[Compound 1c, 9-((3-chloro-phenyl)carbamoyloxymino)fluoren]", "MBC": 5000}
{"smiles": "O=C(Nc1ccc(Cl)c(Cl)c1)ON=C1c2ccccc2-c2ccccc21", "note": "[Compound 1d, 9-((3,4-dichloro-phenyl)carbamoyloxymino)fluoren]", "MBC": 5000}
{"tested_on": "S. aureus ATCC 25923", "test": "MBC assay, plating on solid medium after MIC reading", "assay_type": "cell-based", "details": "Staphylococcus aureus, ATCC25923, read-out: minimum bactericidal concentration (MBC)", "procedure": "as §1, §3", "units": {"MBC": "µg/mL"}}
{"smiles": "O=C(Nc1cccc(Cl)c1)ON=C1c2ccccc2-c2ccccc21", "note": "[Compound 1c, 9-((3-chloro-phenyl)carbamoyloxymino)fluoren]", "MBC": 5000}
{"smiles": "O=C(Nc1ccc(Cl)c(Cl)c1)ON=C1c2ccccc2-c2ccccc21", "note": "[Compound 1d, 9-((3,4-dichloro-phenyl)carbamoyloxymino)fluoren]", "MBC": 312}
{"tested_on": "C. albicans ATCC 90029", "test": "MBC assay, plating on solid medium after MIC reading", "assay_type": "cell-based", "details": "Candida albicans, ATCC90029, read-out: minimum bactericidal concentration (MBC)", "procedure": "as §1, §3", "units": {"MBC": "µg/mL"}}
{"smiles": "O=C(Nc1cccc(Cl)c1)ON=C1c2ccccc2-c2ccccc21", "note": "[Compound 1c, 9-((3-chloro-phenyl)carbamoyloxymino)fluoren]", "MBC": 10000}
{"smiles": "O=C(Nc1ccc(Cl)c(Cl)c1)ON=C1c2ccccc2-c2ccccc21", "note": "[Compound 1d, 9-((3,4-dichloro-phenyl)carbamoyloxymino)fluoren]", "MBC": 10000}
{"tested_on": "P. aeruginosa ATCC 27853", "test": "MBC assay, plating on solid medium after MIC reading", "assay_type": "cell-based", "details": "Pseudomonas aeruginosa, ATCC27853, read-out: minimum bactericidal concentration (MBC)", "procedure": "as §1, §3", "units": {"MBC": "µg/mL"}}
{"smiles": "O=C(Nc1cccc(Cl)c1)ON=C1c2ccccc2-c2ccccc21", "note": "[Compound 1c, 9-((3-chloro-phenyl)carbamoyloxymino)fluoren]", "MBC": 2500}
{"smiles": "O=C(Nc1ccc(Cl)c(Cl)c1)ON=C1c2ccccc2-c2ccccc21", "note": "[Compound 1d, 9-((3,4-dichloro-phenyl)carbamoyloxymino)fluoren]", "MBC": 2500}
{"tested_on": "E. coli ATCC 25922", "test": "Flow cytometry (FCM) membrane depolarization, DiBAC4(3)", "assay_type": "cell-based, Escherichia coli", "details": "subinhibitory concentration tested 1.25 mg/mL, DiBAC4, 18–24 h", "procedure": "The investigation of potential mechanisms of antimicrobial action by flow cytometry (FCM) was performed on microbial cultures obtained after 18–24 h of microbial cell incubation in the presence of subinhibitory concentrations of the analyzed compounds. Thus, microbial suspensions with a density of approximately 10^6 CFU/mL were prepared in sterile saline phosphate buffer from exponentially growing microbial cultures, obtained on a solid culture medium. Subinhibitory concentrations of the compounds were prepared in Muller–Hinton liquid culture medium and inoculated with an equal amount of microbial suspension and incubated for 18–24 h at 37 °C.\nMicrobial suspensions inoculated in a liquid medium were used as growth control. After incubation, the DiBAC4 fluorochrome solution [bis-(1,3-dibutylbarbituric acid) trimethinoxonol] Invitrogen/Life Technologies, Carlsbad, was added (0.5 μg/mL).\nFluorescence intensity (FI) was measured with an Accuri C6 plus flow cytometer in the FITC fluorescence channel. Growth control was used to locate the microbial cell population for fluorescence measurements. DiBAC4 dye was used to detect changes in the microbial membrane potential. […] A twofold increased fluorescence intensity (median fluorescence intensity = MFI) was considered to correspond to the depolarized microbial cells. For each subinhibitory concentration, a coloring index (CI) was calculated which represents the ratio of fluorescence intensity (FI) of treated versus untreated cells."}
{"smiles": "O=C(Nc1cccc(Cl)c1)ON=C1c2ccccc2-c2ccccc21", "note": "[Compound 1c, 9-((3-chloro-phenyl)carbamoyloxymino)fluoren]", "staining index value (SI)": 3.2}
{"smiles": "O=C(Nc1ccc(Cl)c(Cl)c1)ON=C1c2ccccc2-c2ccccc21", "note": "[Compound 1d, 9-((3,4-dichloro-phenyl)carbamoyloxymino)fluoren]", "staining index value (SI)": 173.3}
{"tested_on": "C. albicans ATCC 90029", "test": "Anti-biofilm activity assay, purple violet microtiter method", "assay_type": "cell-based, Candida albicans", "details": "C. albicans ATCC 90029 biofilm", "procedure": "as §1\n(§4) The anti-biofilm activity assay was performed by the purple violet microtiter method, as previously described, allowing us to determine the minimal biofilm inhibitory concentration (MBEC). The same range of concentrations, as in the MIC assay, i.e., from 5 to 0.009 mg/mL has been tested.", "units": {"minimum biofilm inhibitory concentration (MBIC)": "mg/mL"}}
{"smiles": "O=C(Nc1cccc(Cl)c1)ON=C1c2ccccc2-c2ccccc21", "note": "[Compound 1c, 9-((3-chloro-phenyl)carbamoyloxymino)fluoren]", "minimum biofilm inhibitory concentration (MBIC)": 0.312}
{"smiles": "O=C(Nc1ccc(Cl)c(Cl)c1)ON=C1c2ccccc2-c2ccccc21", "note": "[Compound 1d, 9-((3,4-dichloro-phenyl)carbamoyloxymino)fluoren]", "minimum biofilm inhibitory concentration (MBIC)": 0.312}
{"tested_on": "not listed separately", "test": "Scavenger activity towards ABTS•+ free radical", "assay_type": "biochemical", "details": "at 25 μM, 6 min", "procedure": "(§5) The method according to Re R. et al. was used to evaluate the scavenger capacity of the free radical.\n(§6) The ABTS^•+ free radical resulted from the reaction between 2,2′-azinobis-(3-ethylbenzothiazoline-6-sulfonic acid) diammonium salt (7.4 mM) (solution 1) (Sigma-Aldrich, Germany) and potassium persulfate (2.6 mM) (solution 2) (Roth, Germany).\n(§7) In order to obtain the ABTS^•+ free radical reagent, equal volumes of solutions 1 and 2 were mixed for 16 h. The obtained reagent was kept in the dark; 1 mL of the obtained solution was brought to a 50 mL volumetric flask and diluted with ethanol so that the absorbance at λ = 734 nm would be 0.700 ± 0.02.\n(§8) The tested compounds were dissolved and diluted similar to the previous antioxidant assay. […]\n(§9) The following formula was used for the calculation of the ABTS^•+ free radical scavenger activity (%) Inhibition %=Abst=0min−Abst=6min/Abst=0min×100 where: Abst = ABTS^•+ solution absorbance in the absence (0 min)/presence (6 min) of the tested compounds.\n(§10) For both the above-mentioned methods, the antioxidant activity was expressed as IC50 values (μM) which represent the concentration of each compound for which the scavenging activity of free radicals is 50%. […]", "units": {"ABTS•+ free radical scavenger activity": "%"}}
{"smiles": "O=C(Nc1cccc(Cl)c1)ON=C1c2ccccc2-c2ccccc21", "note": "[Compound 1c, 9-((3-chloro-phenyl)carbamoyloxymino)fluoren]", "ABTS•+ free radical scavenger activity": 12.53}
{"tested_on": "not listed separately", "test": "Scavenger activity towards ABTS•+ free radical", "assay_type": "biochemical", "details": "linear regression over 25–1000 μM, 6 min, mean ± SD of three; read-out: IC50 by means of ABTS•+ assay", "procedure": "as §5, §6, §7, §8, §9, §10", "units": {"IC50": "mM"}}
{"smiles": "O=C(Nc1cccc(Cl)c1)ON=C1c2ccccc2-c2ccccc21", "note": "[Compound 1c, 9-((3-chloro-phenyl)carbamoyloxymino)fluoren]", "IC50": 18.2}
{"tested_on": "P. aeruginosa ATCC 27853", "test": "Anti-biofilm activity assay, purple violet microtiter method", "assay_type": "cell-based, Pseudomonas aeruginosa", "details": "P. aeruginosa ATCC 27853 biofilm", "procedure": "as §1, §4", "units": {"minimum biofilm inhibitory concentration (MBIC)": "mg/mL"}}
{"smiles": "O=C(Nc1cccc(Cl)c1)ON=C1c2ccccc2-c2ccccc21", "note": "[Compound 1c, 9-((3-chloro-phenyl)carbamoyloxymino)fluoren]", "minimum biofilm inhibitory concentration (MBIC)": 1.25}
{"smiles": "O=C(Nc1ccc(Cl)c(Cl)c1)ON=C1c2ccccc2-c2ccccc21", "note": "[Compound 1d, 9-((3,4-dichloro-phenyl)carbamoyloxymino)fluoren]", "minimum biofilm inhibitory concentration (MBIC)": 1.25}
{"tested_on": "not listed separately", "test": "Scavenger activity towards DPPH free radical", "assay_type": "biochemical", "details": "at 1000 μM, 30 min", "procedure": "(§11) The DPPH (Sigma-Aldrich, Darmstadt, Germany) solution of 0.1 mM concentration was obtained by dissolving 0.0039 g of free radical in 100 mL ethanol, in a volumetric flask. For all determinations, the DPPH solution was freshly prepared and kept in the dark. Ethanol has been chosen since tested compounds were dissolved in ethanol: DMSO = 99:1 (v/v) mixture.\n(§12) The analyzed compounds were dissolved in 25 mL of ethanol: DMSO = 99:1 (v/v) mixture in a final concentration of 1000 μM (stock solution), from which several concentrations of 25 μM, 50 μM, 75 μM, 100 μM, 250 μM and 500 μM were obtained by successive dilutions.\n(§13) The determination of the antioxidant activity was based on the Ohnishi M et al. method, quoted by Germano M.P. et al..\n(§14) […] The samples were kept at rest in the dark for 30 min [79, 81]. Ethanol was used as a blank in order to measure the absorbance at 515 nm (Jasco V-530 spectrophotometer, Jasco, Japan).\n(§15) The following formula was used to determine DPPH free radical scavenger activity (%): Inhibition %=Acontrol−Asample/Acontrol×100 where, A = absorbance of the 0.1 mM DPPH solution in the absence (control)/presence (sample) of tested compounds after 30 min.\nas §10", "units": {"DPPH free radical scavenger capacity": "%"}}
{"smiles": "O=C(Nc1cccc(Cl)c1)ON=C1c2ccccc2-c2ccccc21", "note": "[Compound 1c, 9-((3-chloro-phenyl)carbamoyloxymino)fluoren]", "DPPH free radical scavenger capacity": 24.64}
{"tested_on": "not listed separately", "test": "Scavenger activity towards DPPH free radical", "assay_type": "biochemical", "details": "linear regression over 25–1000 μM, 30 min, mean ± SD of three; read-out: IC50 by means of DPPH assay", "procedure": "as §11, §12, §13, §14, §15, §10", "units": {"IC50": "mM"}}
{"smiles": "O=C(Nc1cccc(Cl)c1)ON=C1c2ccccc2-c2ccccc21", "note": "[Compound 1c, 9-((3-chloro-phenyl)carbamoyloxymino)fluoren]", "IC50": "5.208 ± 0.000124"}
